The assay has as its target T1, Separase (Homo sapiens, UniProt Q14674).
T1 construct: made in house; host or cells: 293T cells; released from IgG-Agarose by TEV protease
In words: Fluorogenic Separase activity assay using (Rad21)2-Rh110 as substrate. The assay is classed as biochemical. Particulars: DMSO final concentration 2% to 38%. The protocol:
The substrate used in this Example is (Rad21)2-Rh110, which has two Rad21 peptide molecules (Asp-Arg-Glu-Ile-Nle-Arg) conjugated to one molecule of Rhodamine 110 (Rh110) (CPC Scientific, Sunnyvale Calif.). The assay was set up using 384-well low volume black polystyrene plates (Corning, N.Y.). Fifteen micro liter of activated Separase (˜5 ng) was mixed with 5 μl of test compound. The cleavage buffer (CB) used to dilute reagents was (30 mM Hepes-KOH pH7.7, 50 mM NaCl, 25 mM NaF, 25 mM KCl, 5 mM MgCl2, 1.5 mM ATP, and 1 mM EGTA). The mixture was incubated at room temperature for 1 h, and then 5 μl of 0.2 mM substrate (Rad21)2-Rh110 was added. The positive control contained Separase, substrate and CB without the test compound. The negative control contained substrate and CB only. After the reaction mixture was incubated at 37° C. for 3 h, the relative fluorescence intensity was measured (without stopping the enzymatic activity) at λex=390 nm/λem=450 nm for […] (AMC) released from Rad21-MCA or λex=490 nm/λem=528 nm for Rh110 released from (Rad21)2-Rh110 using a Synergy™ 4 Multi-Mode Microplate Reader (BioTek Instruments Inc., Winooski, Vt.).
Different amounts of Sepin-1 were mixed with activated Separase for 30 min before substrate (Rad21)2-Rh110 was added. After 3 h incubation at 37° C., the fluorescence intensity of Rh110 was determined. IC50 was calculated using either KaleidaGraph program (Synerge software, Reading, Pa.) or four parameter logistic equation (4-parameter dose-response curve fit): Inhibition of Activity (%)=min+(max−min)/{1+(log [M]/IC50)}^Hill Slop, where “min” and “max” represent minimal and maximal activity inhibition, respectively. Hill Slop is the slope of the curve at its midpoint. To identify the mode of Sepin-1 interacting with Separase, different amounts of both Sepin-1 and (Rad21)2-Rh110 were used in the Separase activity assay.

T1 sequence (Q14674 whole entry): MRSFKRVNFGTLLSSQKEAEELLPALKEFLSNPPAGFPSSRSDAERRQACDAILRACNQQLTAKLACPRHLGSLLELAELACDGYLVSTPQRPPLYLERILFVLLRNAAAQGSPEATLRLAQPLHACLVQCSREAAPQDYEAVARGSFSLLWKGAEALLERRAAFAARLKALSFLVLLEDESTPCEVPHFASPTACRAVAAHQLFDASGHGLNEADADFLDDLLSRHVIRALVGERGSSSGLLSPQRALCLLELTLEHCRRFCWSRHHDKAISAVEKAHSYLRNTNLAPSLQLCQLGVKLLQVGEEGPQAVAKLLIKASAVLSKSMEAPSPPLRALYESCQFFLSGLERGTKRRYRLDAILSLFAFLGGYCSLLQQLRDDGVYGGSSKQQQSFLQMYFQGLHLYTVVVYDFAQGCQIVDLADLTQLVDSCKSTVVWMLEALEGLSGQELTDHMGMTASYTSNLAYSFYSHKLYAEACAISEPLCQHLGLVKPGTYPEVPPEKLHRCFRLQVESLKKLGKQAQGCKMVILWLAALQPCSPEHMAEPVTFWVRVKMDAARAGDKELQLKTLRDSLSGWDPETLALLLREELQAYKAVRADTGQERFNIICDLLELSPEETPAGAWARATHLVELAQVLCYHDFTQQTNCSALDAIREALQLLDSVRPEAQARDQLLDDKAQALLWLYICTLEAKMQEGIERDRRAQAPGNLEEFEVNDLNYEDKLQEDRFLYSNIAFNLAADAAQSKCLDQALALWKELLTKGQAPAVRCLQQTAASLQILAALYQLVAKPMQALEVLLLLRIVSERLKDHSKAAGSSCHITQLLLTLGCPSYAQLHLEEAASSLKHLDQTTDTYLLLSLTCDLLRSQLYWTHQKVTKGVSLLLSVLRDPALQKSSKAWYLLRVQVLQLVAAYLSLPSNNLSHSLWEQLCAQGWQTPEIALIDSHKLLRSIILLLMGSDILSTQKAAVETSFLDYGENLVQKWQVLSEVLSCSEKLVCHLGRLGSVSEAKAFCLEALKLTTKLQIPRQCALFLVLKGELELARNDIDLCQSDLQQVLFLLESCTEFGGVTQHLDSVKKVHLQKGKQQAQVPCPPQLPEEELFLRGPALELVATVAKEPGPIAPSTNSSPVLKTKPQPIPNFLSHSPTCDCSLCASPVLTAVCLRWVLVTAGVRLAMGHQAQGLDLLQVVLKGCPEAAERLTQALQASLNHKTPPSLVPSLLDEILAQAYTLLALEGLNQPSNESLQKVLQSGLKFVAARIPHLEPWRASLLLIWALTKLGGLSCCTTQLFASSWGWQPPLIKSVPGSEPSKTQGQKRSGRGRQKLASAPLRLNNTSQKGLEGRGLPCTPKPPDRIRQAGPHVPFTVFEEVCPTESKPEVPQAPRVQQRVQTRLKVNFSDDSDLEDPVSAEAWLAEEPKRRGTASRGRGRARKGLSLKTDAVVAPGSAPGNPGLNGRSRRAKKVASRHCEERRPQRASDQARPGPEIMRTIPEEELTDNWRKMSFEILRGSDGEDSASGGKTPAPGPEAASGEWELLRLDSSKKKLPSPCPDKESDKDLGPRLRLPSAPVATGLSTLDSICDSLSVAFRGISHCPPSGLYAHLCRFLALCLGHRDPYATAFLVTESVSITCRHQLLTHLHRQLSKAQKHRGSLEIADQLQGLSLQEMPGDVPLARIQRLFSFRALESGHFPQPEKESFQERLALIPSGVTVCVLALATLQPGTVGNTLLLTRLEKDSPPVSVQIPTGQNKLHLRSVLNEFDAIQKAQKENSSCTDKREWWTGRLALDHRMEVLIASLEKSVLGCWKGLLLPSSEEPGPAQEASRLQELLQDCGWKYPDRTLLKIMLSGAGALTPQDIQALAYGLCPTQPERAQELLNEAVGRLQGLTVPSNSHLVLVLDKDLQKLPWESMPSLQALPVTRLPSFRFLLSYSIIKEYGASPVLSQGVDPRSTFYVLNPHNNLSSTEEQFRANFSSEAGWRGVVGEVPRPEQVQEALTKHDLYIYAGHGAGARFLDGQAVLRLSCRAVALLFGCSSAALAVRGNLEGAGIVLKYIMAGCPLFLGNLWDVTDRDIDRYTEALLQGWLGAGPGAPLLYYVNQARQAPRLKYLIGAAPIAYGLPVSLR

With `C[S+](C)[O-]` [DMSO], the “IC50 of DMSO on Separase assay” value is given as around 27%.
